Assay results taken from patent US20170089921A1, “EXPRESSION OF VOLTAGE-GATED ION CHANNELS IN CILIATES” (priority 2014, published 2017).
No end group written: not given here.

Legend:
Nav1.8 = Nav1.8 (Homo sapiens, UniProt Q9Y5Y9); type: biochemical
Kv1.3 [1] = biological target: T1, Kv1.3 (Homo sapiens, UniProt P22001); experiment: Fluorescent toxin labeling of fixed Kv1.3 expressing Tetrahymena cells (confocal microscopy); type: binding; details: 10 nM, 30 minutes at RT
T1 construct: expressed in transfected cells; host or cells: Tetrahymena thermophila (transformed, CdCl2-induced, paraformaldehyde-fixed)
T1 sequence (P22001 whole entry): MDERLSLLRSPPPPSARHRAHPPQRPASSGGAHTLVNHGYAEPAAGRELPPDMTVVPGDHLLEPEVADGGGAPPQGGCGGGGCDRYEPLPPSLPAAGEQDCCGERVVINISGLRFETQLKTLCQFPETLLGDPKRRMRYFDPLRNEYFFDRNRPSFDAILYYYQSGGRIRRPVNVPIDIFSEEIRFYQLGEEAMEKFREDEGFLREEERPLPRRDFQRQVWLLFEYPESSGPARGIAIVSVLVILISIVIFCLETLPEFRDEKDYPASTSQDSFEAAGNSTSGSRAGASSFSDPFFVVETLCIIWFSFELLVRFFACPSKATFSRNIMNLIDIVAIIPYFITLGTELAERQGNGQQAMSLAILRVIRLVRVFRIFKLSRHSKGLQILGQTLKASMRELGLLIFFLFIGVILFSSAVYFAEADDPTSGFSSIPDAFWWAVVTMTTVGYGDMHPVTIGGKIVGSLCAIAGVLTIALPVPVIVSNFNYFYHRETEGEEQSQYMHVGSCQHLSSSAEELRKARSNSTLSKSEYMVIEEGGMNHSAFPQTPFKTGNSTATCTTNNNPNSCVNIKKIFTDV

[2] = tested on: Wild-type (WT) Tetrahymena cells; experiment: Fluorescent toxin labeling of fixed wild-type control Tetrahymena cells; type: binding, Tetrahymena thermophila; details: 10 nM, 30 minutes at RT
Kv1.3 [3] = biological target: T1, Kv1.3; experiment: Competition of ShK-TAMRA labeling of Kv1.3 expressing cells by non-labeled toxins; type: binding; details: 100 nM (saturating) toxin co-incubated with 10 nM ShK-TAMRA

Sequence of Nav1.8 (Q9Y5Y9 whole entry): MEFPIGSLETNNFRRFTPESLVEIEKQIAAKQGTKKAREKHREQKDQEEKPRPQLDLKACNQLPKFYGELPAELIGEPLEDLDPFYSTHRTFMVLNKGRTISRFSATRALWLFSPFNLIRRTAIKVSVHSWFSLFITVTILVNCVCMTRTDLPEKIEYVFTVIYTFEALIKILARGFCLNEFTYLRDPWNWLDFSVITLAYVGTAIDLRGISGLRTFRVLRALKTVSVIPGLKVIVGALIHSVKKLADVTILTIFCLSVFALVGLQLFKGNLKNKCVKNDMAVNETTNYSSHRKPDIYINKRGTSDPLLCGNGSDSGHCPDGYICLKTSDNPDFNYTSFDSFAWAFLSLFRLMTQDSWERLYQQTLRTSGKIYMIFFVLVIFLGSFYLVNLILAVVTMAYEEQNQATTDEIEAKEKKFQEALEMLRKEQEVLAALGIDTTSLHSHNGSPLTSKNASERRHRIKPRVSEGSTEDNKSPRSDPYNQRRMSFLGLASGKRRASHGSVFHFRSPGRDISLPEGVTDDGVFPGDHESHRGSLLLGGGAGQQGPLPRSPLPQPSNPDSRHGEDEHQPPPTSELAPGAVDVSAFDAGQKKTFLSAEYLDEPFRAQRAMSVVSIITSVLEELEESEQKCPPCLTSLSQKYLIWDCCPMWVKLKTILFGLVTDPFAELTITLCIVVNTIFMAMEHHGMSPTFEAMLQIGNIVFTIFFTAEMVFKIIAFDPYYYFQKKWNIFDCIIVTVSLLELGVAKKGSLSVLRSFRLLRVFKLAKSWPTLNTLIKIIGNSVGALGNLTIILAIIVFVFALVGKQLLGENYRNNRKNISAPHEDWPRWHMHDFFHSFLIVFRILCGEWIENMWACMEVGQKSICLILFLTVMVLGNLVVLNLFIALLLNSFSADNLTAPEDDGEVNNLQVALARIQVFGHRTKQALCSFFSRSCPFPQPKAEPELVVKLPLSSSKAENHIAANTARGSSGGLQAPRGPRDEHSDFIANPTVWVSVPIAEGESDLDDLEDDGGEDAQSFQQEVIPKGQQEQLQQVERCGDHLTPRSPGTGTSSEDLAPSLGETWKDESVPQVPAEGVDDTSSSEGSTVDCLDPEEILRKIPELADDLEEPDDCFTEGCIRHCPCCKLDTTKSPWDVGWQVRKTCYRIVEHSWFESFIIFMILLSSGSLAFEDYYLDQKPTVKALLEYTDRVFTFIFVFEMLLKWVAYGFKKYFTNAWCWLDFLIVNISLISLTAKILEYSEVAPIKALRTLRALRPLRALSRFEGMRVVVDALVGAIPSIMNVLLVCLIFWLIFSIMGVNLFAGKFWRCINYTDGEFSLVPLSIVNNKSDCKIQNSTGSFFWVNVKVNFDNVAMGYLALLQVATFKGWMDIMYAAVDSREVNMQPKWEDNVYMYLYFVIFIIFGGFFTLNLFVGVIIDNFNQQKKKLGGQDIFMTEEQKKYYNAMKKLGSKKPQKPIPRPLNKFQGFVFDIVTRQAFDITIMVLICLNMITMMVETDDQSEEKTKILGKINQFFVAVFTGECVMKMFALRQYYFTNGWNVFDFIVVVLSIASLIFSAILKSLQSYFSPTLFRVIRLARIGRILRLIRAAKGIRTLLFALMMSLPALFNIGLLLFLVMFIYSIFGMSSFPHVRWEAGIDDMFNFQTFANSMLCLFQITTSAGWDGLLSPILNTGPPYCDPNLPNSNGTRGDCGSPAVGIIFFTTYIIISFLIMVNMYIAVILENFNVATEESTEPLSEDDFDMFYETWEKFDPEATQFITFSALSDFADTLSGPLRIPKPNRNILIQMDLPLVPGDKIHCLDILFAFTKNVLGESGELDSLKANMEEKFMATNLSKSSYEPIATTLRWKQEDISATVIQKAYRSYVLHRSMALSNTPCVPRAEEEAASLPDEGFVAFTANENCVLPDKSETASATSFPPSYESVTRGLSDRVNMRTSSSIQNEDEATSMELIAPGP

Row | Compound | binding to Kv1.3 expressing cells (cell surface labeling) (Kv1.3 [1]) | labeling of WT cells [2] | competition with ShK-TAMRA binding (Kv1.3 [3]) | further results
1 | Cc1c[nH]c(C)c1C(=O)O[C@@H](C)C1=CC[C@@]23OCCN(C)C[C@@]12C[C@@H](O)[C@]12O[C@]4(O)CC[C@@]1(C)[C@H](CC=C32)C4 [BTX, batrachatoxin] | – | – | – | channel activity following addition of activator (Nav1.8; Nav1.8 proteoliposomes, 10× NaCl chemical gradient, 0 mV holding potential, no conductance before addition): channel activity was detected; conductances (Nav1.8; after addition of BTX, 10× NaCl chemical gradient, 0 mV holding potential): 2-3 pA
2 | NC1=N[C@H](O)[C@H]2[C@H]3O[C@]4(O)O[C@@H]([C@@H](O)[C@@]2(N1)[C@@H]4O)[C@]3(O)CO [Tetrodotoxin] | – | – | – | channel activity following addition of blocker (Nav1.8): Activity was abolished
3 | Agitoxin-2-TAMRA [AgTX-2-TAMRA] | bound to Kv1.3 expressing cells | No labeling | – | –
4 | Iberiotoxin (QFTDVDCSVSKECWSVCKDLFGVDRGKCMGKKCRCYQ; ends and bridges not checked; cysteine pairing not given here; UniProt P24663 1-37, looked up) [IbTX] | – | – | does not interfere with ShK-TAMRA binding | –
5 | Margatoxin (TIINVKCTSPKQCLPPCKAQFGQSAGAKCMNGKCKCYPH; ends and bridges not checked; cysteine pairing not given here; UniProt P40755 1-39, looked up) [MgTX] | – | – | competitive | –
6 | ShK-TAMRA | bound to Kv1.3 expressing cells | No labeling | – | –
